Experimental data as given in patent US20250179029A1, “DEUTERATED RETINOIDAL COMPOUNDS AND SYNTHESIS AND USES THEREOF” (UNIVERSITY OF MARYLAND, BALTIMORE, priority 2022, published 2025).

What was measured:
[1] = test system: MCF7; experiment: MTT antiproliferative assay, MCF7 non-TNBC cells; assay type: cell-based; conditions: mean of three independent experiments
Procedure: (§1) Compounds 2, 4, 8 and 9, as well as paclitaxel (PTX) were evaluated over a range of concentrations to examine their antiproliferative activities against two non-TNBC cell lines, MCF7 and SKBR3using the well-established 3-(4,5-dimethylthiazolyl-2)-2,5-diphenyl tetrazolium bromide (MTT) assay.^48,55,56 The parent non-deuterated VNLG-152R (Compound 2) was used as the positive control.
(§2) As presented in Table 1 below, the GI50 values of the deuterated Compounds 4, 8 and 9 against the MCF7 cell are identical to the GI50 value of the parent protio VNLG-152R (Compound 2). In contrast, the SKBR3 cell appears to be more sensitive to the deuterated compounds compared to the parent non-deuterated VNLG-152R (Compound 2). The reason for this difference is not understood at this time. The applicant hypothesizes that the enhanced diffusion of these deuterated molecules across the cell membrane of this cell line may result in enhanced intracellular concentrations and inhibition of its proliferation. Each data point is a mean of replicates from three independent experiments.

[2] = test system: SKBR3; experiment: MTT antiproliferative assay, SKBR3 non-TNBC cells; assay type: cell-based; conditions: mean of three independent experiments
Procedure: as §1, §2

[3] = test system: Mnk1, peIF4E, eIF4E, cyclin D1, Bcl-2, Bax in MDA-MB-231 cells; experiment: Western blotting of Mnk1 and downstream targets in MDA-MB-231 cells; assay type: cell-based, human; conditions: MDA-MB-231, 5, 10 and 20 µM, 24 h, Western blot
From the text: The applicant had previously reported that the antiproliferative effects of Compound 1 and our other Mnk1/2 degraders in breast cancer cells was due to degradation of Mnk1/2 with consequent depletion of peIF4E and modulation of the downstream molecular targets.^48,55,56 Thus, the deuterated analogs were further examined for their effects on the degradation of Mnk1 and the other related downstream molecular targets in both MDA-MB-231 and MDA-MB-468 TNBC cells by Western blotting analysis.
The human breast cancer cell lines, MDA-MB-231, MDA-MB-468 were procured from ATCC (Manassas, VA) and cultured in the recommended media supplemented with 10% heat-inactivated standard fetal bovine serum (FBS, GIBCO) and 1% penicillin-streptomycin (10,000 U/ml, Life Technologies) at 37° C. and 5% CO2. Primary antibodies against Mnk1, eIF4E, p-eIF4E, Cyclin D1, BCL2, BAX, β-actin, and secondary RP-conjugated anti-rabbit used in the study were procured from Cell Signaling Technology, USA. Cells were lysed with radioimmunoprecipitation assay (RIPA) buffer supplemented with 1× protease inhibitors (Roche, Indianapolis, IN, USA), phosphatase inhibitors (Thermo Scientific, Waltham, MA, USA), 1 mmol/L EDTA and 1 mmol/L PMSF (Sigma) and immunoblotting analyses were performed as described previously.^48,64
The non-deuterated VNLG-152R (Compound 2) and the vehicle, DMSO were used as positive and negative controls, respectively. Equal protein concentrations from breast cancer cells treated with the compounds at different concentration (5, 10 and 20 µM) for 24 h were separated by SDS-PAGE and Western blots probed with the respective protein antibodies. Vehicle treated cells were included as a control, and all blots were reprobed for R-actin for loading control.

[4] = Plasma pharmacokinetics after single oral dose in female CD-1 mice; assay type: in vivo
Procedure: The PK study was performed by the Certified Research Organization (CRO), Aragen Life Sciences Private Limited (Aragen), Hyderabad, India. All procedures of the present study were in accordance with the guidelines provided by the Committee for the Purpose of Control and Supervision of Experiments on Animals (CPCSEA) as published in The Gazette of India, Jan. 7, 2010. CPCSEA renewal number for institute is 1125/PO/Rc/S/CPCSEA on 13Feb. 2014. Institutional Animal Ethics Committee (IAEC) approval has been taken to initiate the study (IAEC Approval Number: B-011A). The details are presented in the Supplementary Materials.
To minimize the number of mice used in the PK study using a validated LC/MS/MS analysis, both individual (discrete) (set #1: Compound 5, EM=463.2937 and set #2: […], EM=463.2937) and cassette (set #3: Compounds 2, 3, and 7; EMs=459.2686, 462.2874 and 466.3125, respectively, and set #4: Compounds 4, 8, and 9; EMs=460.2749, 464.2999 and 467.3188, respectively) dosing were used.^59,66 The four sets studied were dictated by the exact molecular masses of the compounds as indicated above and in FIG. 3.
The plasma PK profiles were obtained after single oral (PO) dosing of the compounds in mice.
In Table 2, data are presented as the mean of values obtained from three female CD-1 mice. Cmax is the maximum observed plasma concentration. Tmax is the time to maximum concentration. T1/2 is the elimination half-life. AUC represents AUC (0-∞), which is the area under the concentration-time curve from time of dosing extrapolated to infinity. MRT refers to mean residence time. The number in parentheses indicate the rank order from best (1) to worst (8).

[5] = test system: MDA-MB-231 tumor xenograft; experiment: Anti-tumor activity in MDA-MB-231 xenograft mouse model; assay type: in vivo; conditions: 20 mg/kg, PO, 5 days/week, 16 days
Procedure: (§3) FIGS. 13A-13D show the anti-tumor activity of VNLG-152R, Compound 4, Compound 8, and Compound 9 in xenograft mouse models. […] In FIGS. 13B and 13D, *=p<0.0001.
(§4) After confirming the improved pharmacokinetic parameters of deuterated compounds 4, 8, and 9, the anti-tumor activity of these compounds was tested in xenograft models of MDA-MB-231 and MDA-MB-468. In both models, the mice for each group were treated with either vehicle (control) or the compounds, each at 20 mg/kg, PO, 5 days/week.

[6] = test system: MDA-MB-468 tumor xenograft; experiment: Anti-tumor activity in MDA-MB-468 xenograft mouse model; assay type: in vivo; conditions: 20 mg/kg, PO, 5 days/week, 16 days
Procedure: as §3, §4

[7] = test system: Mnk1, peIF4E, cyclin D1 in MDA-MB-231 cells; experiment: Western blotting of Mnk1 and downstream targets in MDA-MB-231 cells (mechanism study); assay type: cell-based, human; conditions: MDA-MB-231, 24 hours, FIG. 14B
Procedure: FIGS. 14A and 14B show the in vitro effects of VNLG-152R on synoviolin 1 (SYVN1) and other targets in MDA-MB-231 cells.
After confirming the anti-tumor effect of VNLG-152R, the molecular mechanism of VNLG-152R was studied, in order to help identify potential new molecular targets for treatment. Using an established procedure^70,71, a label-free proteomics analysis was conducted. MDA-MB-231 cells were treated for 24 hours with VNLG-152R in the concentrations indicated in FIGS. 14A and 14B, followed by Western blotting of whole cell lysates.

[8] = test system: androgen-sensitive and castration-resistant human prostate cancer cells; conditions: androgen-sensitive and castration-resistant human prostate cancer cells in vitro; cited from earlier work
[9] = single p.o. dose 10 mg/kg, female CD-1 mice, plasma

- GI50 [1]: 350 ± 110 nM
- GI50 [2]: 260 ± 120 nM
- clearance from systemic circulation (plasma concentration versus time profile) ([4]; single PO dosing, mice, FIGS. 12A-12C): could not be detected after 8 hours
- AUC (0-∞) [4, 9]: 22764.75 ng·h/mL
- MRT (mean residence time) [4, 9]: 3.02 h
- T1/2 (elimination half-life) [4, 9]: 3.61 h
- Tmax [4, 9]: 0.83 h
- Cmax ([4]; single p.o. dose 10 mg/kg, female CD-1 mice, plasma, mean of three mice): 4651.88 ng/mL
SMILES: CC1=C(/C=C/C(C)=C/C=C/C(C)=C/C(=O)Nc2ccc(F)cc2)C(C)(C)CCC1n1ccnc1 (racemic) [Compound 2, (±) 4-Imidazolyl-4(H)-(4′-fluoro(phenyl))-(E)-retinamide]
- expression of Mnk1 [3]: significantly and dose-dependently reduced
- expression of peIF4E [3]: significantly and dose-dependently reduced
- expression of total eIF4E [3]: without noticeable effects
- reduction of tumor growth [5]: 87%
- reduction of tumor growth [6]: 81%
- Mnk1 level [7]: dose-dependent Mnk1 depletion
- cyclin D1 level [7]: suppression
- peIF4E level [7]: suppression
- anti-proliferative and anti-metastatic activities [8]: potent
